{"source": "patent US9862672B2", "about": "“Antioxidant-based poly(anhydride-esters)” (RUTGERS, THE STATE UNIVERSITY OF NEW JERSEY, priority 2013, dated 2018)", "origin": "cited, not measured here", "conditions": "in vivo"}
{"compound": "COc1cc(/C=C/C(=O)O)ccc1O", "note": "[Ferulic acid]", "values": [{"measurement": "Elimination half-life", "result": "less than 2 hours"}]}
